From patent US8901317B2, “Tryptamine derivatives, their preparation and their use in gastropathy” (Council of Scientific & Industrial Research, priority 2010, dated 2014)

test system: not listed separately; assay: Ferric reducing antioxidant power (FRAP) assay; conditions: 6 min; compound at 10 μM relative to ferrous sulfate
Procedure: The antioxidant property of different tryptamine derivatives were assessed and compared with the known antioxidants for potency. […] The FRAP assay is based on the measurement of the ability of the substance to reduce Fe^3+ to Fe^2+, greater the reducing ability greater the anti oxidant property. Antioxidants reduce Fe^3+-TPTZ in to blue colored Fe^2+-TPTZ complex, which results in an increase in the absorbance at 595 nm giving a FRAP value. […] Absorbance changes at different time intervals (FIG. 6) as well as at different concentrations (FIG. 7) at time 6 min in the presence of different compounds at 595 nm were measured. FRAP values at 6 min and 65 min were calculated from different tryptamine derivatives and some known antioxidant (Table 1). […] DPPH assay based on the DPPH free radicals scavenging power of the antioxidant molecules. Higher the scavenging power higher will be the antioxidant property.
The assay was performed in a 96-well microplate. FRAP reagent was prepared by mixing of 10 ml acetate buffer (200 mM, pH-3.6), 1 ml of 2,4,6-tris(2-pyridyl)-s-triazine (TPTZ) solution (10 mM in 40 mM HCl) and 1 ml of ferric chloride solution (20 mM) in distilled water. For 1 h the mixture was kept in a water bath at 37° C. In 96-well microplates, 25 μL of the compounds under investigation dissolved (in methanol, some compound dissolved in water) at different concentrations in the range 1-25 μM was placed in triplicate and freshly prepared FRAP solution (175 μL) was added to this sample. A micro plate reader monitored the absorbance at 595 nm at different time intervals for up to 150 min. The absorbance of a mixture 175 μL TRAP sol and 25 μL methanol or water was taken which was subtracted from the absorbance of the samples at each time interval to calculate the absorbance change (ΔA). The FRAP value at time interval t (FRAP valuet) was calculated according to the formula: FRAP valuet(M)=(ΔatFl/ΔatFe^2+)×10^−5 Where ΔatFl is the absorbance change after the time interval t (6 and 65 min) relative to the tested flavonoid at the concentration of 10 μM and ΔatFe^2+ is the absorbance change at the same time interval relative to ferrous sulfate at the same concentration (Pal, C; et al. Free Radic Biol Med, 49(2), 258-267, 2010, Firuzi, O; et al. Biochim. Biophys. Acta 1721:174-184; 2005).

| SMILES | FRAP Value6 min (μM) M ± SD [µM] |
| --- | --- |
| O=C(NCCc1c[nH]c2ccccc12)c1cc(O)c(O)c(O)c1 [Compound 3b, N-(2-(1H-indol-3-yl)ethyl)-3,4,5-trihydroxybenzamide] | 14.32 ± 0.36 |
| COc1ccc2[nH]cc(CCNC(=O)c3cc(O)c(O)c(O)c3)c2c1 [Compound 3c, 3,4,5-trihydroxy-N-(2-(5-methoxy-1H-indol-3-yl)ethyl)benzamide] | 15.32 ± 0.46 |
| NCCc1c[nH]c2ccc(OC(=O)c3cc(O)c(O)c(O)c3)cc12 [Compound 4d, 3-(2-aminoethyl)-1H-indol-5-yl 3,4,5-trihydroxybenzoate] | 24.02 ± 1.98 |

same assay, conditions: 65 min; compound at 10 μM relative to ferrous sulfate

| SMILES | FRAP Value65 min (μM) M ± SD [µM] |
| --- | --- |
| O=C(NCCc1c[nH]c2ccccc12)c1cc(O)c(O)c(O)c1 [Compound 3b, N-(2-(1H-indol-3-yl)ethyl)-3,4,5-trihydroxybenzamide] | 19.65 ± 2.1 |
| COc1ccc2[nH]cc(CCNC(=O)c3cc(O)c(O)c(O)c3)c2c1 [Compound 3c, 3,4,5-trihydroxy-N-(2-(5-methoxy-1H-indol-3-yl)ethyl)benzamide] | 21.96 ± 2.6 |
| NCCc1c[nH]c2ccc(OC(=O)c3cc(O)c(O)c(O)c3)cc12 [Compound 4d, 3-(2-aminoethyl)-1H-indol-5-yl 3,4,5-trihydroxybenzoate] | 35.40 ± 3.25 |

test system: not listed separately; assay: DPPH free radical scavenging assay; conditions: compounds 100 μM; 517 nm (Table 2)
Procedure: The antioxidant property of different tryptamine derivatives were assessed and compared with the known antioxidants for potency. A range of different synthesized compounds and known anti oxidants, quercetin, ascorbic acid and gallic acid were analyzed by the FRAP assay. The FRAP assay is based on the measurement of the ability of the substance to reduce Fe^3+ to Fe^2+, greater the reducing ability greater the anti oxidant property. Antioxidants reduce Fe^3+-TPTZ in to blue colored Fe^2+-TPTZ complex, which results in an increase in the absorbance at 595 nm giving a FRAP value. […] Absorbance changes at different time intervals (FIG. 6) as well as at different concentrations (FIG. 7) at time 6 min in the presence of different compounds at 595 nm were measured. FRAP values at 6 min and 65 min were calculated from different tryptamine derivatives and some known antioxidant (Table 1). […] DPPH assay based on the DPPH free radicals scavenging power of the antioxidant molecules. Higher the scavenging power higher will be the antioxidant property. […] This assay was performed in presence of some known antioxidants such as ascorbic acid, quercetin and gallic acid.
2,2-Diphenyl-1-Picrylhydrazyl (DPPH) is a stable free radical that can accept hydrogen radical or an electron and become a stable diamagnetic molecule. The antioxidants can scavenge the DPPH by donating hydrogen as visualized by discoloration of the DPPH radical from purple to yellow (Pal, C; et al. Free Radic Biol Med, 49(2), 258-267; 2010, Ben Farhat, M.; et al. J. Agric. Food Chem. 57:10349-10356; 2009, Han, J; et al. Wei Sheng Yan Jiu 38:596-598; 2009). The assay system contained 1 mL of compounds under investigation dissolved (in methanol, some compound dissolved in water) at different concentrations in the range 10-100 μM solution and 4 ml of DPPH (0.15 mM) in methanol (80% in water v/v) and mixed well. It was allowed to stand for 30 min at 27° C. away from light. Ascorbic acid at the same concentration was taken as positive control. The absorbance of the solution was measured spectrophotometrically at 517 nm and from the decrease of absorption; the antioxidant activity of different tryptamine derivatives were determined.

| SMILES | Absorbance change (ΔA) at 30 min |
| --- | --- |
| O=C(NCCc1c[nH]c2ccccc12)c1cc(O)c(O)c(O)c1 [Compound 3b, N-(2-(1H-indol-3-yl)ethyl)-3,4,5-trihydroxybenzamide] | 0.31 ± 0.06 |
| COc1ccc2[nH]cc(CCNC(=O)c3cc(O)c(O)c(O)c3)c2c1 [Compound 3c, 3,4,5-trihydroxy-N-(2-(5-methoxy-1H-indol-3-yl)ethyl)benzamide] | 0.35 ± 0.08 |
| NCCc1c[nH]c2ccc(OC(=O)c3cc(O)c(O)c(O)c3)cc12 [Compound 4d, 3-(2-aminoethyl)-1H-indol-5-yl 3,4,5-trihydroxybenzoate] | 0.38 ± 0.07 |

same assay, conditions: concentration 10 μM (Table 3)

| SMILES | Absorbance change (ΔA) at 30 min |
| --- | --- |
| O=C(NCCc1c[nH]c2ccccc12)c1cc(O)c(O)c(O)c1 [Compound 3b, N-(2-(1H-indol-3-yl)ethyl)-3,4,5-trihydroxybenzamide] | 0.16 ± 0.02 |
| COc1ccc2[nH]cc(CCNC(=O)c3cc(O)c(O)c(O)c3)c2c1 [Compound 3c, 3,4,5-trihydroxy-N-(2-(5-methoxy-1H-indol-3-yl)ethyl)benzamide] | 0.18 ± 0.02 |
| NCCc1c[nH]c2ccc(OC(=O)c3cc(O)c(O)c(O)c3)cc12 [Compound 4d, 3-(2-aminoethyl)-1H-indol-5-yl 3,4,5-trihydroxybenzoate] | 0.18 ± 0.01 |

same assay, conditions: concentration 30 μM (Table 3)

| SMILES | Absorbance change (ΔA) at 30 min |
| --- | --- |
| O=C(NCCc1c[nH]c2ccccc12)c1cc(O)c(O)c(O)c1 [Compound 3b, N-(2-(1H-indol-3-yl)ethyl)-3,4,5-trihydroxybenzamide] | 0.21 ± 0.05 |
| COc1ccc2[nH]cc(CCNC(=O)c3cc(O)c(O)c(O)c3)c2c1 [Compound 3c, 3,4,5-trihydroxy-N-(2-(5-methoxy-1H-indol-3-yl)ethyl)benzamide] | 0.24 ± 0.03 |
| NCCc1c[nH]c2ccc(OC(=O)c3cc(O)c(O)c(O)c3)cc12 [Compound 4d, 3-(2-aminoethyl)-1H-indol-5-yl 3,4,5-trihydroxybenzoate] | 0.27 ± 0.03 |

same assay, conditions: concentration 50 μM (Table 3)

| SMILES | Absorbance change (ΔA) at 30 min |
| --- | --- |
| O=C(NCCc1c[nH]c2ccccc12)c1cc(O)c(O)c(O)c1 [Compound 3b, N-(2-(1H-indol-3-yl)ethyl)-3,4,5-trihydroxybenzamide] | 0.23 ± 0.04 |
| COc1ccc2[nH]cc(CCNC(=O)c3cc(O)c(O)c(O)c3)c2c1 [Compound 3c, 3,4,5-trihydroxy-N-(2-(5-methoxy-1H-indol-3-yl)ethyl)benzamide] | 0.28 ± 0.05 |
| NCCc1c[nH]c2ccc(OC(=O)c3cc(O)c(O)c(O)c3)cc12 [Compound 4d, 3-(2-aminoethyl)-1H-indol-5-yl 3,4,5-trihydroxybenzoate] | 0.31 ± 0.05 |

same assay, conditions: concentration 80 μM (Table 3)

| SMILES | Absorbance change (ΔA) at 30 min |
| --- | --- |
| O=C(NCCc1c[nH]c2ccccc12)c1cc(O)c(O)c(O)c1 [Compound 3b, N-(2-(1H-indol-3-yl)ethyl)-3,4,5-trihydroxybenzamide] | 0.28 ± 0.03 |
| COc1ccc2[nH]cc(CCNC(=O)c3cc(O)c(O)c(O)c3)c2c1 [Compound 3c, 3,4,5-trihydroxy-N-(2-(5-methoxy-1H-indol-3-yl)ethyl)benzamide] | 0.31 ± 0.07 |
| NCCc1c[nH]c2ccc(OC(=O)c3cc(O)c(O)c(O)c3)cc12 [Compound 4d, 3-(2-aminoethyl)-1H-indol-5-yl 3,4,5-trihydroxybenzoate] | 0.33 ± 0.05 |

same assay, conditions: concentration 100 μM (Table 3)

| SMILES | Absorbance change (ΔA) at 30 min |
| --- | --- |
| O=C(NCCc1c[nH]c2ccccc12)c1cc(O)c(O)c(O)c1 [Compound 3b, N-(2-(1H-indol-3-yl)ethyl)-3,4,5-trihydroxybenzamide] | 0.31 ± 0.06 |
| COc1ccc2[nH]cc(CCNC(=O)c3cc(O)c(O)c(O)c3)c2c1 [Compound 3c, 3,4,5-trihydroxy-N-(2-(5-methoxy-1H-indol-3-yl)ethyl)benzamide] | 0.35 ± 0.08 |
| NCCc1c[nH]c2ccc(OC(=O)c3cc(O)c(O)c(O)c3)cc12 [Compound 4d, 3-(2-aminoethyl)-1H-indol-5-yl 3,4,5-trihydroxybenzoate] | 0.38 ± 0.07 |

test system: indomethacin-induced gastric mucosal damage; assay: Indomethacin-induced gastric mucosal damage (ulcer index, histology); type: in vivo, Sprague-Dwaley rats; conditions: 6.9 mg kg^−1 intraperitoneally; indomethacin-induced gastropathy
Procedure: Sprague-Dwaley rats (180-220 gm) were used for this study. Each group (control or experimental) of animals was maintained at 24±2° C. with 12 hrs lights and dark cycle. The animals were fasted for 24 hrs before the start of experiments. They were provided with water ad libitum to avoid food-induced increased acid secretion and its effect on gastric lesions. Gastric mucosal ulcer was developed by indomethacin as described (Pal, C; et al. Free Radic Biol Med, 49(2), 258-267; 2010, Biswas, K.; et al. J. Biol. Chem. 278:10993-11001; 2003, Bandyopadhyay, U.; et al. Life Sci. 71:2845-2865; 2002). Briefly, all the animals were divided into control, indomethacin and test compound group. Oral administration of indomethacin at a dose of 48 mg kg^−1 b.w was given to the fasted animals to induce gastric ulcer. […] Control group received vehicle only but no indomethacin. After 4 hrs of indomethacin treatment, the animals were sacrificed under proper euthanasia and stomachs were collected. The mucosal injury was scored as ulcer index as follows: 0=no pathology; 1=one pinhead ulcer. The sum of the total scores divided by the number of animals gave the ulcer index. All the in vivo studies were done in accordance with the institute animal ethical committee guidelines. To see the effect of SEGA on diclofenac induced gastric mucosal injury, gastric mucosal damage was developed by the oral administration of diclofenac (75 mg kg^−1) and the rest of the experiment was carried out in a similar way as described for indomethacin. Diclofenac produced pinhead ulcer like indomethacin and the mucosal injury was scored as ulcer index as described above. Ethanol-induced gastric mucosal injury was developed with oral administration of 1 ml of 50% ethanol (Banerjee, R. K. (2002) Life Sci 71, 2845-2865) and after 4 hrs the animals were sacrificed and cold-restrain stress induced mucosal injury was developed by immobilizing the animals at 4° C. for 3.5 hrs (Banerjee, R. K. (2002) Life Sci 71, 2845-2865, (2003) J Biol Chem 278, 10993-11001).
Stomach tissues from the animals of different groups were washed first washed several times with PBS (pH 7.4) and later fixed in 10% buffered formalin for 12 hrs at 25° C. The formalin-fixed tissues were then dehydrated and embedded in paraffin for preparing semi-thin sections (Maity, P.; et al. J. Biol. Chem. 283:14391-14401; 2008). The semi-thin sections were prepared using a microtome and taken over poly-L-lysine coated glass slide for hematoxylene-eosine staining. The stained sections were observed under microscope (Leica DM-2500, Germany) and were documented by high-resolution digital camera.

| SMILES | gastroprotective effect compared with SEGA (3a) |
| --- | --- |
| O=C(NCCc1c[nH]c2ccccc12)c1cc(O)c(O)c(O)c1 [Compound 3b, N-(2-(1H-indol-3-yl)ethyl)-3,4,5-trihydroxybenzamide] | lesser gastroprotective effect |
| COc1ccc2[nH]cc(CCNC(=O)c3cc(O)c(O)c(O)c3)c2c1 [Compound 3c, 3,4,5-trihydroxy-N-(2-(5-methoxy-1H-indol-3-yl)ethyl)benzamide] | lesser gastroprotective effect |
| NCCc1c[nH]c2ccc(OC(=O)c3cc(O)c(O)c(O)c3)cc12 [Compound 4d, 3-(2-aminoethyl)-1H-indol-5-yl 3,4,5-trihydroxybenzoate] | lesser gastroprotective effect |

same assay, conditions: compound 6.9 mg kg^−1 intraperitoneally before indomethacin 48 mg kg^−1 oral; rats

| SMILES | Gastric mucosal damage (ulcer index) |
| --- | --- |
| O=C(NCCc1c[nH]c2ccccc12)c1cc(O)c(O)c(O)c1 [Compound 3b, N-(2-(1H-indol-3-yl)ethyl)-3,4,5-trihydroxybenzamide] | 42 ± 2 |
| COc1ccc2[nH]cc(CCNC(=O)c3cc(O)c(O)c(O)c3)c2c1 [Compound 3c, 3,4,5-trihydroxy-N-(2-(5-methoxy-1H-indol-3-yl)ethyl)benzamide] | 39 ± 2 |
| NCCc1c[nH]c2ccc(OC(=O)c3cc(O)c(O)c(O)c3)cc12 [Compound 4d, 3-(2-aminoethyl)-1H-indol-5-yl 3,4,5-trihydroxybenzoate] | 41 ± 2.5 |
